# Assay results from ChEMBL document CHEMBL4311981, “Synthesis, anticancer activity, and molecular modeling of 1,4-naphthoquinones that inhibit MKK7 and Cdc25” (Eur J Med Chem, 2019).
# Activity calls are given as the source filed them. The rule behind the calls is not given here.
# How the values were obtained:
# [1] = target: T1, Dual specificity mitogen-activated protein kinase kinase 7 (Homo sapiens) (UniProt O14733); assay: Binding affinity to MKK7 (unknown origin) expressed in HEK293 cells assessed as dissociation constant at <30 uM by kinomescan method; format: cell-based
# T1 sequence (whole entry): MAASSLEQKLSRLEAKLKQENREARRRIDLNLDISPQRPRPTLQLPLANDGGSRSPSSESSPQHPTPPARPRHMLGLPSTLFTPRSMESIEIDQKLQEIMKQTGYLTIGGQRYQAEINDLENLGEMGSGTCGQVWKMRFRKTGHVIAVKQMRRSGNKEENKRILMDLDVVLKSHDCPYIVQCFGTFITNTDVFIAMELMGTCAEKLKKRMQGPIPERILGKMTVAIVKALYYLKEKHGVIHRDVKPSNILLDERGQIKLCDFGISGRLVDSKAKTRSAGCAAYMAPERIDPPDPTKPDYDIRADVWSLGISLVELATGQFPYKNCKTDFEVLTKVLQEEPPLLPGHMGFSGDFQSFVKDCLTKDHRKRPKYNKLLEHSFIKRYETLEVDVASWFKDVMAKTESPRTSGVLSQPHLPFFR
# [2] = target: T2, M-phase inducer phosphatase 2 (Homo sapiens) (UniProt P30305); assay: Inhibition of recombinant Cdc25B (unknown origin) at <50 uM using OMFP as substrate measured every 30 sec for 10 mins by fluorometric assay
# T2 sequence (whole entry): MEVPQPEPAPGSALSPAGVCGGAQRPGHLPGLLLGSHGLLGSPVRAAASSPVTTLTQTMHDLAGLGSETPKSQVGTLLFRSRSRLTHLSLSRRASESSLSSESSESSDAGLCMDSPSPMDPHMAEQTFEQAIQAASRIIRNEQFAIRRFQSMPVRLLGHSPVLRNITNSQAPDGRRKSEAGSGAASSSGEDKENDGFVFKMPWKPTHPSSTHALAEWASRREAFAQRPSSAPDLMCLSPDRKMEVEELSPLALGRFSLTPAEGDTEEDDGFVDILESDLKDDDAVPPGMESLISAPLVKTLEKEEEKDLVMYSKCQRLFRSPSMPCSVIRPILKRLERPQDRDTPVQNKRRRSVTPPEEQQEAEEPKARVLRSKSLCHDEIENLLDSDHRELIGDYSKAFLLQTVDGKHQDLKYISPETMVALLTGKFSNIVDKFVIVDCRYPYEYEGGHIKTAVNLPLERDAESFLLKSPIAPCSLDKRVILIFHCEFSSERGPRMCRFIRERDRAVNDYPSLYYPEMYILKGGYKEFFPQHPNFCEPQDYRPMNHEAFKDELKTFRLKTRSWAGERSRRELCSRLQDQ
# [3] = target: T3, Neutrophil elastase (Homo sapiens) (UniProt P08246); assay: Inhibition of recombinant HNE (unknown origin) at <50 uM using N-methylsuccinyl-Ala-Ala-Pro-Val-7-amino-4-methylcoumarin, as a substrate measured every 30 sec for 10 mins by fluorometric assay
# T3 sequence (whole entry): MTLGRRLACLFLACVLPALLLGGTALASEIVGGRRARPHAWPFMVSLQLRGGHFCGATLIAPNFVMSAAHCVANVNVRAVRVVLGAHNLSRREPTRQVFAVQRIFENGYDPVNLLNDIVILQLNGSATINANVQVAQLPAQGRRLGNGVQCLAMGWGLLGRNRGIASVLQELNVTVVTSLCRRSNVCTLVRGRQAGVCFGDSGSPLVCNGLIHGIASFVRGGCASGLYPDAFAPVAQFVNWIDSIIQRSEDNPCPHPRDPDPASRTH
# [4] = target: T4, M-phase inducer phosphatase 1 (Homo sapiens, UniProt P30304)
# T4 sequence (P30304 whole entry): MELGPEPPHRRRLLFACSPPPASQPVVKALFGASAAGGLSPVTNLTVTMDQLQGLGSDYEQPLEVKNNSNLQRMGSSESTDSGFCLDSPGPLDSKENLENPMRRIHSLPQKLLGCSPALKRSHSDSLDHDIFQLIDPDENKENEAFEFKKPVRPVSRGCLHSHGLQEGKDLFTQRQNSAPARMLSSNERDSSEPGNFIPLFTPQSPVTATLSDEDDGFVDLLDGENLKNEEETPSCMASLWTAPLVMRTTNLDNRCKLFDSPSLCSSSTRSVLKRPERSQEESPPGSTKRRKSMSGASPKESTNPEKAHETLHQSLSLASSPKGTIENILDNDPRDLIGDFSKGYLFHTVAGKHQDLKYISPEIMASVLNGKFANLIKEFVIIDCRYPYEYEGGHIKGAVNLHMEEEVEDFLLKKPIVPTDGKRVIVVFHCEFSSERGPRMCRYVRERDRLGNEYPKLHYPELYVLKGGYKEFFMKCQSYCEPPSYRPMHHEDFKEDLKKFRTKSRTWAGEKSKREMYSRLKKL
# Description: Inhibition of recombinant Cdc25A (unknown origin) using OMFP as substrate measured every 30 sec for 10 mins by fluorometric assay
# Neutrophil elastase = target: T5, Neutrophil elastase (Homo sapiens, UniProt P08246); assay: Inhibition of recombinant HNE (unknown origin) using N-methylsuccinyl-Ala-Ala-Pro-Val-7-amino-4-methylcoumarin, as a substrate measured every 30 sec for 10 mins by fluorometric assay
# T5 sequence (P08246 whole entry): T3 sequence (whole entry)
# MONO-MAC-6 [5] = assay: Cytotoxicity against human MONO-MAC-6 cells assessed as reduction in cell viability incubated for 24 hrs by CellTiter-Glo luminescent cell viability assay; format: functional, cell-based; settings: MONO-MAC-6, 24 h
# HL-60 [6] = assay: Cytotoxicity against human HL60 cells assessed as reduction in cell viability incubated for 24 hrs by CellTiter-Glo luminescent cell viability assay; format: functional, cell-based; settings: HL-60, 24 h
# SW982 [7] = assay: Cytotoxicity against human SW982 cells assessed as reduction in cell viability incubated for 24 hrs by CellTiter-Glo luminescent cell viability assay; format: functional, cell-based; settings: SW982, 24 h
# U-937 [8] = assay: Cytotoxicity against human U937 cells assessed as reduction in cell viability incubated for 24 hrs by CellTiter-Glo luminescent cell viability assay; format: functional, cell-based; settings: U-937, 24 h
# MCF7 [9] = assay: Cytotoxicity against human MCF7 cells assessed as reduction in cell viability incubated for 24 hrs by CellTiter-Glo luminescent cell viability assay; format: functional, cell-based; settings: MCF7, 24 h
# PBMC [10] = assay: Cytotoxicity against human PBMC cells assessed as reduction in cell viability incubated for 24 hrs by CellTiter-Glo luminescent cell viability assay; format: cell-based; settings: read-out: IC50
# [11] = target: T6, M-phase inducer phosphatase 2 (Homo sapiens, UniProt P30305)
# T6 sequence (P30305 whole entry): T2 sequence (whole entry)
# Description: Inhibition of recombinant Cdc25B (unknown origin) using OMFP as substrate measured every 30 sec for 10 mins by fluorometric assay
# Jurkat [12] = assay: cells; settings: Homo sapiens, 24 h
# Description: Cytotoxicity against human Jurkat cells assessed as reduction in cell viability incubated for 24 hrs by CellTiter-Glo luminescent cell viability assay
# [13] = target: T7, Dual specificity mitogen-activated protein kinase kinase 7 (Homo sapiens, UniProt O14733); assay: biochemical
# T7 sequence (O14733 whole entry): T1 sequence (whole entry)
# Description: Binding affinity to MKK7 (unknown origin) expressed in HEK293 cells assessed as dissociation constant by kinomescan method
# [14] = target: T8, M-phase inducer phosphatase 1 (Homo sapiens) (UniProt P30304); assay: Inhibition of recombinant Cdc25A (unknown origin) at <50 uM using OMFP as substrate measured every 30 sec for 10 mins by fluorometric assay
# T8 sequence (whole entry): T4 sequence (P30304 whole entry)
# THP-1 [15] = assay: Cytotoxicity against human THP1 cells assessed as reduction in cell viability incubated for 24 hrs by CellTiter-Glo luminescent cell viability assay; format: functional, cell-based; settings: THP-1, 24 h
# SW982 [16] = assay: Cytotoxicity against human SW982 cells assessed as reduction in cell viability at <50 uM incubated for 24 hrs by CellTiter-Glo luminescent cell viability assay; format: functional, cell-based
# MCF7 [17] = assay: Cytotoxicity against human MCF7 cells assessed as reduction in cell viability at <50 uM incubated for 24 hrs by CellTiter-Glo luminescent cell viability assay; format: functional, cell-based
# LS174T [18] = assay: Cytotoxicity against human LS174T cells assessed as reduction in cell viability at <50 uM incubated for 24 hrs by CellTiter-Glo luminescent cell viability assay; format: functional, cell-based
# A549 [19] = assay: Cytotoxicity against human A549 cells assessed as reduction in cell viability at <50 uM incubated for 24 hrs by CellTiter-Glo luminescent cell viability assay; format: functional, cell-based
# PBMC [20] = assay: Cytotoxicity against human PBMC cells assessed as reduction in cell viability at <50 uM incubated for 24 hrs by CellTiter-Glo luminescent cell viability assay; format: cell-based
# THP-1 [21] = assay: Cytotoxicity against human THP1 cells assessed as reduction in cell viability at <50 uM incubated for 24 hrs by CellTiter-Glo luminescent cell viability assay; format: functional, cell-based
# MONO-MAC-6 [22] = assay: Cytotoxicity against human MONO-MAC-6 cells assessed as reduction in cell viability at <50 uM incubated for 24 hrs by CellTiter-Glo luminescent cell viability assay; format: functional, cell-based
# HL-60 [23] = assay: Cytotoxicity against human HL60 cells assessed as reduction in cell viability at <50 uM incubated for 24 hrs by CellTiter-Glo luminescent cell viability assay; format: functional, cell-based
# Jurkat [24] = assay: Cytotoxicity against human Jurkat cells assessed as reduction in cell viability at <50 uM incubated for 24 hrs by CellTiter-Glo luminescent cell viability assay; format: functional, cell-based
# U-937 [25] = assay: Cytotoxicity against human U937 cells assessed as reduction in cell viability at <50 uM incubated for 24 hrs by CellTiter-Glo luminescent cell viability assay; format: functional, cell-based
# LS174T [26] = assay: Cytotoxicity against human LS174T cells assessed as reduction in cell viability incubated for 24 hrs by CellTiter-Glo luminescent cell viability assay; format: functional, cell-based
# A549 [27] = assay: Cytotoxicity against human A549 cells assessed as reduction in cell viability incubated for 24 hrs by CellTiter-Glo luminescent cell viability assay; format: functional, cell-based; settings: A549, 24 h
SMILES,inhibition [1],inhibition [2],inhibition [3],IC50 [4],IC50 (MONO-MAC-6 [5]),IC50 (HL-60 [6]),IC50 (SW982 [7]),IC50 (U-937 [8]),IC50 (MCF7 [9]),IC50 (PBMC [10]),IC50 [11],IC50 (Jurkat [12]),Kd [13],IC50 (THP-1 [15]),Activity [1],other results
O=C(O)CNC1=C(Cl)C(=O)c2ccccc2C1=O,inactive,inactive,inactive,36 µM,,,,,,,,,,,,
CC(SC1=CC(=O)c2ccccc2C1=O)C(=O)O (centres undefined),,,,5.4 µM,43.6 µM,20.5 µM,21.1 µM,34.6 µM,27.9 µM,23.8 µM,5.2 µM,17.9 µM,2.1 µM,,,IC50 (Neutrophil elastase): 36.1 µM
COC(=O)c1ccc(NC2=C(OC)C(=O)c3ccccc3C2=O)cc1,inactive,inactive,inactive,,,,,,,,,,,,,inhibition [14]: inactive
O=C1C(Cl)=C(NCCCN2CCOCC2)C(=O)c2ccccc21,inactive,inactive,inactive,,,,,,,,,,,,,inhibition [14]: inactive
COc1ccc(OC)c2c1C(=O)C=C(SCCC(=O)O)C2=O,,,inactive,26 µM,12.8 µM,28.7 µM,,26.6 µM,,,7.8 µM,21.3 µM,,33.3 µM,inactive,Activity (SW982 [16]): inactive; Activity (MCF7 [17]): inactive; Activity (LS174T [18]): inactive; Activity (A549 [19]): inactive; Activity (PBMC [20]): Non-Toxic
O=C1C(Cl)=C(NCCCO)C(=O)c2ccccc21,inactive,inactive,inactive,45.7 µM,,,,,,,,,,,,
CC(C)=CCC1=C(O)C(=O)c2ccccc2C1=O [LAPACHOL],,,inactive,33.2 µM,,,,,,,42.7 µM,,,,inactive,Activity (THP-1 [21]): inactive; Activity (MONO-MAC-6 [22]): inactive; Activity (HL-60 [23]): inactive; Activity (SW982 [16]): inactive; Activity (Jurkat [24]): inactive; Activity (U-937 [25]): inactive; Activity (MCF7 [17]): inactive; Activity (LS174T [18]): inactive; Activity (A549 [19]): inactive; Activity (PBMC [20]): Non-Toxic
O=C1C(SCCO)=C(SCCO)C(=O)c2ccccc21,,,inactive,,4.2 µM,1 µM,7.9 µM,3.9 µM,9.4 µM,7.8 µM,,3.7 µM,1.1 µM,,,IC50 (LS174T [26]): 18.1 µM; IC50 (A549 [27]): 13.1 µM
COC1=C(C)C(=O)c2ccccc2C1=O,,,inactive,22.3 µM,18.4 µM,20.4 µM,,35.1 µM,,,33.1 µM,49.2 µM,,47.3 µM,inactive,Activity (SW982 [16]): inactive; Activity (LS174T [18]): inactive; Activity (A549 [19]): inactive; Activity (PBMC [20]): Non-Toxic
CC(C)(C)[C@H]1CC[C@H](CC2=C(O)C(=O)c3ccccc3C2=O)CC1 [BUPARVAQUONE],,,inactive,,,,,,,,12 µM,,,,inactive,inhibition [14]: inactive
O=C(O)c1cccc(NC2=C(Cl)C(=O)c3ccccc3C2=O)c1,,,inactive,32.9 µM,13.4 µM,12.1 µM,5.5 µM,7.6 µM,28.5 µM,37.9 µM,24.3 µM,8.2 µM,1.9 µM,8.6 µM,,IC50 (LS174T [26]): 11.7 µM; IC50 (A549 [27]): 26.2 µM
O=C1C(Cl)=C(NCCO)C(=O)c2ccccc21,inactive,inactive,inactive,45.3 µM,,,,,,,,,,,,
COC1=C(OC)C(=O)c2ccccc2C1=O,,,inactive,8.9 µM,3.6 µM,5.4 µM,20.6 µM,11.3 µM,6.3 µM,18.5 µM,17.4 µM,,27 µM,8.2 µM,,IC50 (LS174T [26]): 27.9 µM; IC50 (A549 [27]): 15.6 µM
